Laboratory results: PMC2206373, “Identification of an altered peptide ligand based on the endogenously presented, rheumatoid arthritis-associated, human cartilage glycoprotein-39(263–275) epitope: an MHC anchor variant peptide for immune modulation” (Arthritis Research & Therapy, 2007)
No end group written: not given here.

Tests used:
T cell hybridoma 5G11 = assay: T hybridoma 5G11 IL-2 response; format: cell-based, mouse; details: for Hybridoma response (SI) 5G11: IL-2 by ELISA after 48 h, peptide 10 μg/ml, SI > 2 positive
Procedure: (§1) The T cell hybridomas, provided by G Sonderstrup (Stanford, CA, USA), were generated as described. In brief, human CD4, HLA-DRA*101/HLA-DRB*0401 triple transgenic (HLA-DR4trg) mice (devoid of I-Aβ) were immunized in the footpad with 50 μg of purified HC gp-39 mixed in incomplete Freund's adjuvant (IFA). Draining lymph nodes were isolated and T-cell hybridomas were generated by polyethylene glycol fusion of primed and in vitro antigen-restimulated lymph node cells with the AKR BW5147 fusion partner. Following fusion, growth-positive hybridoma wells were screened for reactivity to HC gp-39 and a set of 55 peptides (16 amino acids in length) covering the entire HC gp-39 sequence. HLA-DR4(B1*0401)-restricted hybridomas responsive to both the HC gp-39 protein and the immunodominant epitope 263–275 of HC gp-39 (for example, 5G11, 8B12, 14G11 and 20H5) were cloned, subcloned, characterised and selected for further study.
(§2) HC gp-39-specific IL-2 production by T hybridomas was measured in wells of round-bottomed microtiter plates. Hybridoma cells (2 to 5 × 10^4) and irradiated APC (0.5 to 1 × 10^5; 12,000 to 16,000 RAD) from the B lymphoblastoid cell line (BLCL) carrying the DRB1*0401 specificity were incubated in 150 μl volumes. Antigen was added in 50 μl volumes to duplicate wells. After 48 h, 100 μl of the culture supernatant was assayed for IL-2 production using a sandwich ELISA with Pharmingen antibodies specific for mouse IL-2. The antigen sensitivity of the hybridomas to both peptide and protein was determined (Figure 2). […] In later assays, an excess of peptide or APL (10 μg/ml), inducing maximal responses in all hybridomas, was tested.

T cell hybridoma 8B12 = assay: T hybridoma 8B12 IL-2 response; format: cell-based, mouse; details: for Hybridoma response (SI) 8B12: IL-2 by ELISA after 48 h, peptide 10 μg/ml, SI > 2 positive
Procedure: as §1, §2

T cell hybridoma 14G11 = assay: T hybridoma 14G11 IL-2 response; format: cell-based, mouse; details: for Hybridoma response (SI) 14G11: IL-2 by ELISA after 48 h, peptide 10 μg/ml, SI > 2 positive
Procedure: as §1, §2

T cell hybridoma 20H5 = assay: T hybridoma 20H5 IL-2 response; format: cell-based, mouse; details: for Hybridoma response (SI) 20H5: IL-2 by ELISA after 48 h, peptide 10 μg/ml, DRB1*0401 BLCL as APC, SI > 2 positive
Procedure: as §1, §2

[1] = tested on: popliteal lymph node cells from HC gp-39(263–275)-immunized huCD4, HLA-DR4 transgenic mice; assay: Antigen-specific proliferation of popliteal lymph node cells from WT peptide-immunized mice; format: cell-based, mouse; details: 96 h, tritiated thymidine, background 407 cpm, SI > 2 positive, SD not above 30%
Procedure: (§3) Mice, obtained from L Fugger (Oxford, UK), were immunized in the hind footpads with 2 × 50 μg of purified recombinant HC gp-39, with 2 × 100 μg of the WT peptide or with 2 × 100 μg of the APL (F265(Dip); compound 28; Figure 1) mixed in IFA. Seven days later, popliteal lymph node cell suspensions (1 to 2 × 10^5 cells/well) were stimulated in vitro with HC gp-39 (50, 10 or 2 μg/ml), HC gp-39(263–275) or APL (10, 2 and 0.4 μg/ml). At 96 h, 50 μl of culture medium was harvested for analysis of antigen-specific cytokine production using Luminex technology (mouse cytokine 18 Plex Panel, catalogue no. 171-F11181, Biorad, Bio-Rad Laboratories, Hercules, CA, USA). In addition, cultures were labelled with tritiated thymidine (for 18 h) and antigen-specific proliferation was determined. We state that all animal experimentation received ethics approval and animals were treated according to the recognized guidelines.

[2] = tested on: popliteal lymph node cells from HC gp-39(263–275)-immunized huCD4, HLA-DR4 transgenic mice; assay: Antigen-specific cytokine production of popliteal lymph node cells from WT peptide-immunized mice; format: cell-based, mouse; details: for IFNγ concentration / MIP1α concentration / RANTES concentration: 96 h supernatant, Luminex
Procedure: as §3

[3] = tested on: popliteal lymph node cells from F265(Dip)-immunized HLA-DR4trg mice; assay: Antigen-specific proliferation of popliteal lymph node cells from F265(Dip)-immunized mice; format: cell-based, mouse; details: Figure 4b
Procedure: as §3

[4] = tested on: popliteal lymph node cells from F265(Dip)-immunized HLA-DR4trg mice; assay: Antigen-specific cytokine production of popliteal lymph node cells from F265(Dip)-immunized mice; format: cell-based, mouse; details: Figure 4b
Procedure: as §3

B1*0101 = details: cited from earlier work
Text: (§4) Four TCR contact sites (Ala268, Ser269, Glu271 and Thr272) are important for polyclonal T cell activation. No information is available on important residues in the MHC α-chain, but for the β chain information on MHC restriction can be used (data not shown). The peptide does bind to HLA-DRB1*0402, B1*0405 and B1*0101 [7]. […] This leads to the view of the MHC-peptide complex in Figure 3b. Some of these MHC β-chain residues are th ...

B1*0405 = details: cited from earlier work
Text: as §4

HLA-DRB1*0402 = HLA-DRB1*0402 (Homo sapiens, UniProt P01903+P01911, A100E/A169T/F76Y/K127E/L162R/M171V/N62H/P40V/Q125Y/Q99D/R42H/S133A/S149N/S66Y/V209L/W38E); details: cited from earlier work
Text: as §4

[5] = Figure 2a dose response, IL-2 ELISA after 48 h
[6] = Figure 4a, WT peptide-immunized HLA-DR4trg mice

Question: With “RSFTLASSETGVG [Compound 1, HC gp-39(263–275)]” as the sequence, how does the “T hybridoma (SI) 5G11” value (T cell hybridoma 5G11; Figure 1, IL-2 production, DRB1*0401 BLCL as APC, duplicate or triplicate, background 29,203 counts, ±30% of WT response = super/partial agonist) read?
Answer: 29 SI

Question: What about the “Peptide concentration for half maximal stimulation (IL-2), 5G11” value (T cell hybridoma 5G11; [5]) of the same sequence?
Answer: 2 µg/mL

Question: What about the “Hybridoma response (SI) 5G11” value (T cell hybridoma 5G11; Table 1, DRB1*0401 BLCL as APC, background 8,147 counts, representative of at least three experiments) of the same sequence?
Answer: 13 SI

Question: What about the “Hybridoma response (SI) 5G11” value (T cell hybridoma 5G11; Table 2, DRB1*0401 BLCL as APC, background 17,238 counts, SD not above 15%) of the same sequence?
Answer: 17 SI

Question: And the “T hybridoma (SI) 8B12” value (T cell hybridoma 8B12; Figure 1, IL-2 production, DRB1*0401 BLCL as APC, duplicate or triplicate, background 16,288 counts, ±30% of WT response = super/partial agonist)?
Answer: 19 SI

Question: And the “Peptide concentration for half maximal stimulation (IL-2), 8B12” value (T cell hybridoma 8B12; [5])?
Answer: 0.21 µg/mL

Question: What about the “Hybridoma response (SI) 8B12” value (T cell hybridoma 8B12; Table 1, DRB1*0401 BLCL as APC, background 7,470 counts, representative of at least three experiments) of the same sequence?
Answer: 9 SI

Question: And the “Hybridoma response (SI) 8B12” value (T cell hybridoma 8B12; Table 2, DRB1*0401 BLCL as APC, background 8,773 counts, SD not above 15%)?
Answer: 39 SI

Question: And the “T hybridoma (SI) 14G11” value (T cell hybridoma 14G11; Figure 1, IL-2 production, DRB1*0401 BLCL as APC, duplicate or triplicate, background 7,152 counts, ±30% of WT response = super/partial agonist)?
Answer: 35 SI

Question: What about the “Peptide concentration for half maximal stimulation (IL-2), 14G11” value (T cell hybridoma 14G11; [5]) of the same sequence?
Answer: 0.26 µg/mL

Question: And the “Hybridoma response (SI) 14G11” value (T cell hybridoma 14G11; Table 1, DRB1*0401 BLCL as APC, background 8,598 counts, representative of at least three experiments)?
Answer: 15 SI

Question: What about the “Hybridoma response (SI) 14G11” value (T cell hybridoma 14G11; Table 2, DRB1*0401 BLCL as APC, background 10,131 counts, SD not above 15%) of the same sequence?
Answer: 30 SI

Question: And the “Peptide concentration for half maximal stimulation (IL-2), 20H5” value (T cell hybridoma 20H5; [5])?
Answer: 0.02 µg/mL

Question: And the “Hybridoma response (SI) 20H5” value (T cell hybridoma 20H5; Table 1, background 35,749 counts, representative of at least three experiments)?
Answer: 26 SI

Question: And the “Hybridoma response (SI) 20H5” value (T cell hybridoma 20H5; Table 2, background 290,666 counts, SD not above 15%)?
Answer: 5 SI

Question: What about the “Prol (SI)” value ([1]; peptide 0.4 μg/ml) of the same sequence?
Answer: 3 SI

Question: What about the “Prol (SI)” value ([1]; peptide 2 μg/ml) of the same sequence?
Answer: 6 SI

Question: What about the “Prol (SI)” value ([1]; peptide 10 μg/ml) of the same sequence?
Answer: 8 SI

Question: What about the “Ex vivo recall IFNγ production in words” value [2, 6] of the same sequence?
Answer: significant levels

Question: And the “Ex vivo recall Mip1α production in words” value [2, 6]?
Answer: significant levels

Question: And the “Ex vivo recall RANTES production in words” value [2, 6]?
Answer: significant levels

Question: What about the IFNγ concentration ([2]; peptide 0.4 μg/ml) of the same sequence?
Answer: <5 pg/mL

Question: And the MIP1α concentration ([2]; peptide 0.4 μg/ml)?
Answer: 25 pg/mL

Question: What about the RANTES concentration ([2]; peptide 0.4 μg/ml) of the same sequence?
Answer: 6 pg/mL

Question: And the IFNγ concentration ([2]; peptide 2 μg/ml)?
Answer: 6 pg/mL

Question: And the MIP1α concentration ([2]; peptide 2 μg/ml)?
Answer: 128 pg/mL

Question: What about the RANTES concentration ([2]; peptide 2 μg/ml) of the same sequence?
Answer: 13 pg/mL

Question: What about the IFNγ concentration ([2]; peptide 10 μg/ml) of the same sequence?
Answer: 16 pg/mL

Question: What about the MIP1α concentration ([2]; peptide 10 μg/ml) of the same sequence?
Answer: 252 pg/mL

Question: And the RANTES concentration ([2]; peptide 10 μg/ml)?
Answer: 23 pg/mL

Question: And the “In vitro recall proliferative response in words” value [3]?
Answer: somewhat less

Question: And the “In vitro recall IFNγ production in words” value [4]?
Answer: failed to induce significant levels

Question: What about the “In vitro recall Mip1α production in words” value [4] of the same sequence?
Answer: failed to induce significant levels

Question: And the “In vitro recall RANTES production in words” value [4]?
Answer: failed to induce significant levels

Question: And the “Binding to HLA-DRB1*0101 in words” value (B1*0101)?
Answer: does bind

Question: And the “Binding to HLA-DRB1*0405 in words” value (B1*0405)?
Answer: does bind

Question: What about the “Binding to HLA-DRB1*0402 in words” value (HLA-DRB1*0402) of the same sequence?
Answer: does bind
